Like-named read-outs stand apart in the source and are kept apart here.
How the values were obtained:
[1] = tested on: H1N1 virus strain A/PR/8/34; assay: microbe, parasite or virus in culture; format: cell-based, Influenza A (H1N1) virus; conditions: MDCK cells
[2] = tested on: influenza or influenza-like illness; assay: Randomized, single-blind clinical study, treatment of influenza or influenza-like illness in combination with Tamiflu; format: in vivo, human
Description: Subjects were randomized and placed on a treatment regimen of five days. Group C contained 29 subjects that received 75 mg of Tamiflu® (Oseltamivir Phosphate) in capsule form two times a day for five days. Group D contained 29 subjects that received 75 mg of Tamiflu® (Oseltamivir Phosphate) in capsule form and two 175 mg lozenges of HSRx 351 two times a day for 5 days.
Subjects were also instructed to record any adverse events.
Statistical Analysis/Results—A survival analysis was performed to compare over time the Influenza symptom functions of groups C and D. The time dependent event for which survival and hazard functions were calculated was the final data collection visit for each subject. A Generalized Linear Mixed Model was run to test the hypothesis of fewer adverse events in the combination treatment Group D versus Tamiflu® (Oseltamivir phosphate) only treatment groups C. Parameter estimates such as beta weights and R2 were evaluated along with a P value significance level set at 5%.

[3] = tested on: flu and/or flu like symptoms; conditions: 10 day regimen, 30 subjects per group
[4] = tested on: H1N1 virus particles; assay: Direct binding assay to H1N1 virus particles (DART TOF-MS); parameters: species or system Influenza A (H1N1) virus
Description: Further, direct binding of test biomarkers in HSRx 351 to influenza virus and hemagglutinin were evaluated using the methods described in Roscheck Jr 2009. […] The methodology used is described in Roschek Jr 2009.
Viral Particles—Briefly, H1N1 virus particles were incubated with HSRx 351 or synthetic biomarkers 6 or 7 analog, to allow binding of the compounds within HSRx 351. After incubation, unbound compounds were removed by washing the virus particles three times through a 100 kDa molecular weight cut off membrane filter (Amicon 100 kDa filter, Ultracel PL-100; Millipore Corp. Billerica, Mass.) with phosphate buffered saline (PBS). The virus particles were then collected and fixed in 100% EtOH. The fixed virus particles and the washed fractions containing the unbound chemicals were collected and analyzed directly by DART TOF-MS for comparison.

[5] = Influenza A virus, read-out: IC50
[6] = Influenza A virus, read-out: IC50 (μg/mL)
[7] = preliminary statistical results

## NC12CC3CC(CC(C3)C1)C2 [Amantadine, amantadine]
[1]; [5]
  IC50: 27 µM
[1]; [6]
  IC50: 4.1 µg/mL

## CCOC(=O)C1=C[C@@H](OC(CC)CC)[C@H](NC(C)=O)[C@@H](N)C1 [Tamiflu ®, Oseltamivir Phosphate]
[2]; 29 subjects per group
  Adverse events attributed to study product: 4 number of subjects
  At least one symptom worsened by end of study: 6 number of subjects
  Multiple symptoms worsened by end of study: 3 number of subjects
  Symptoms failed to improve by end of study: 2 number of subjects
[2]; five day treatment, preliminary results
  Composite VAS assessment exceeding baseline VAS: baseline VAS = 126
[2]; [7]
  % Average Reduction, Aches and pains: 64.46%
  % Average Reduction, Composite: 63.83%
  % Average Reduction, Degree of coughing: 67.74%
  % Average Reduction, Fever reduction: 85.38%
  % Average Reduction, Frequency of coughing: 50.38%
  % Average Reduction, Mucus discharge in the respiratory tract: 54.63%
  % Average Reduction, Nasal congestion: 66.35%
  % Average Reduction, Quality of sleep: 57.89%
[3]
  medically related adverse events reported: Five

## 3-Hydroxyflavonone [Biomarker 7 analog]
[1]
  IC50 (μg/mL): 2.8 and μg/mL
[1]; read-out: IC50
  IC50: 8.7 µM
[4]
  binding to H1N1 virus particles (enrichment in the fixed virus samples over the washed fractions): bind H1N1 virus particles

## CCOC(=O)C1=C[C@@H](OC(CC)CC)[C@H](NC(C)=O)[C@@H](N)C1 [Oseltamivir, oseltamivir]
[1]; [5]
  IC50: 0.32 µM
[1]; [6]
  IC50: 0.1 µg/mL
